Experimental data taken from patent publication US7696218B2, “Substituted 1,3-dialkyl-2,4-dioxo-6-(arylamino)-1,2,3,4-tetrahydropyrimidine-5-hydroxamic acid inhibitors of MAPK/ERK kinase” (Takeda San Diego, Inc., priority 2006, dated 2010).
pIC50: −log10 of the molar value.

target: T1, MEK2 (Homo sapiens, UniProt P36507, S222E/S226D); test: MEK2 inhibition assay, fluorescence polarization with IMAP beads (ERK1 / FI-Erktide substrate); assay type: biochemical; conditions: 4 nM MEK2, 25 nM ERK1, 400 μM ATP, 500 nM FI-Erktide, 1% DMSO, 22 min at room temperature; values given as ranges; read-out: IC50 of Exemplified Compounds Against MEK2
T1 construct: 6-histidine tag (N); made in house; host or cells: Spodoptera frugiperda Sf9 (baculovirus) for MEK2; E. coli for ERK1
From the text: For MEK2, DNA encoding residues 1-400 (S222E/S226D) of the full-length sequence of the human enzyme may be amplified by PCR and cloned into pFastbac (Invitrogen), which incorporates a 6-histidine tag at the N-terminus. The two mutations, S222E and S226D, may be obtained by quick change PCR. SEQ ID NO: 3 corresponds to residues 1-400 with mutations S222E/S226D, and with the N-terminal 6-histidine tag and SEQ ID NO: 4 is the DNA sequence that was used to encode SEQ ID NO: 3.
Recombinant baculovirus incorporating the MEK1 and MEK2 constructs may be generated by transposition using the Bac-to-Bac system (Invitrogen). High-titer viral stocks may be generated by infection of Spodoptera frugiperda Sf9 cells; the expression of recombinant protein may be carried out by infection of Spodoptera frugiperda Sf9 (Invitrogen) in 5L Wave Bioreactors (Wave Biotech).
Recombinant protein may be isolated from cellular extracts by passage over ProBond resin (Invitrogen). Partially purified extracts of all MEK1 may then be further purified by high pressure liquid chromatography over a SEC2000 gel filtration resin. The purity of MEK1 and MEK2 proteins may be determined on denaturing SDS-PAGE gel. Purified MEK1 and MEK2 may then be concentrated to a final concentration of 3.4 mg/ml and 5.4 mg/ml, respectively. The proteins may be either stored at −78° C. in a buffer containing 50 mM TRIS-HCl pH 7.6, 250 mM NaCl, 0.1 mM EDTA and 0.125 mM TCEP or at −20° C. in the presence of glycerol (final concentration of glycerol at 50%).
The inhibitory properties of compounds relative to MEK1 or MEK2 may be determined using a black 384-well-plate format under the following reaction conditions: 50 mM HEPES pH 7.3, 10 mM NaCl, 10 mM MgCl2, 0.01% Brij35, 1 nM MEK1 or 4 nM MEK2, 25 nM ERK1, 400 μM ATP, 500 nM IPTTPITTYFFFK-5FAM-COOH (FI-Erktide), and 1% DMSO. Reaction product is determined quantitatively by fluorescent polarization using progressive IMAP beads from Molecular Devices.
The assay reaction may be initiated as follows: 2 μl of the mixture of 1.5 μM FI-Erktide and 75 nM ERK with 2 μl of inhibitor (2 fold serial dilutions for 11 data points for each inhibitor) containing 3% DMSO were added to each well of the plate, followed by the addition of 2 μl of the mixture of 3 nM MEK1 or 12 nM MEK2 and 1200 μM ATP to initiate the reaction (final enzyme concentration was 1 nM for MEK1 or 4 nM for MEK2). The reaction mixture may then be incubated at room temperature for 22 min, and quenched and developed by addition of 20 μl of 1:200 dilution of progressive IMAP beads (Molecular Devices) in 80% buffer A, 20% bufferB and 0.003% Tween 20. Fluorescence polarization of the resulting reaction mixtures may be measured after a 1 hour incubation at room temperature.
IC50 values may be calculated by non-linear curve fitting of the compound concentrations and fluorescence polarization signal to the standard IC50 equation.

T1 sequence (P36507 with tags, fused parts or gaps S222E/S226D): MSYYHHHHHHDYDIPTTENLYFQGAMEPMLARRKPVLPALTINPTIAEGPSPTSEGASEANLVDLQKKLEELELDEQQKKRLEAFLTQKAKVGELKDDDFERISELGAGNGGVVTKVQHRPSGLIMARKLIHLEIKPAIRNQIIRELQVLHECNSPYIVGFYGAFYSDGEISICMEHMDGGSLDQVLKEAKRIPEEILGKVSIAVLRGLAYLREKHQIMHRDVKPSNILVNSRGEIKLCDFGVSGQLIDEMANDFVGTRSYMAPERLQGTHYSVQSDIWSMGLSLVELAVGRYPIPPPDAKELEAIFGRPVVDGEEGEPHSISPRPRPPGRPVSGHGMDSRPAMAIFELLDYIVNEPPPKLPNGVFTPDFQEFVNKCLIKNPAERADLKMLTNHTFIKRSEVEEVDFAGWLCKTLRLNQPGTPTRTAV

`Cn1c(=O)c(C(=O)NOC[C@H](O)CO)c(Nc2ccc(I)cc2F)n(CF)c1=O` [Example 54, (R)-N-(2,3-Dihydroxypropoxy)-6-(2-fluoro-4-iodophenylamino)-1-(fluoromethyl)-3-methyl-2,4-dioxo-1,2,3,4-tetrahydropyrimidine-5-carboxamide] and `Cn1c(Nc2ccc(I)cc2F)c(C(=O)NOC[C@H](O)CO)c(=O)n(C)c1=O` [Example 2, (R)-N-(2,3-dihydroxypropoxy)-6-(2-fluoro-4-iodophenylamino)-1,3-dimethyl-2,4-dioxo-1,2,3,4-tetrahydropyrimidine-5-carboxamide] cannot be ordered by pIC50: 5.60 to 6.30 for the first, at least 6.30 for the second.

`Cn1c(Nc2ccc(I)cc2F)c(C(=O)NCCN)c(=O)n(C)c1=O` [Example 42, N-(2-Aminoethyl)-6-(2-fluoro-4-iodophenylamino)-1,3-dimethyl-2,4-dioxo-1,2,3,4-tetrahydropyrimidine-5-carboxamide] and `Cn1c(Nc2ccc(I)cc2F)c(C(=O)NCCO)c(=O)n(C)c1=O` [Example 55, 6-(2-Fluoro-4-iodophenylamino)-N-(2-hydroxyethyl)-1,3-dimethyl-2,4-dioxo-1,2,3,4-tetrahydropyrimidine-5-carboxamide] fall in the same range of pIC50: 5.60 to 6.30 for the first, 5.60 to 6.30 for the second.

`Cn1c(Nc2ccc(I)cc2F)c(C(=O)NOC[C@H](O)CCO)c(=O)n(C)c1=O` [Example 56, 6-(2-Fluoro-4-iodo-phenylamino)-1,3-dimethyl-2,4-dioxo-1,2,3,4-tetrahydropyrimidine-5-carboxylic acid ((R)-2,4-dihydroxy-butoxy)-amide] and `Cn1c(Nc2ccc(I)cc2F)c(C(=O)NOC[C@@H](O)CCO)c(=O)n(C)c1=O` [Example 57, 6-(2-Fluoro-4-iodo-phenylamino)-1,3-dimethyl-2,4-dioxo-1,2,3,4-tetrahydropyrimidine-5-carboxylic acid ((S)-2,4-dihydroxy-butoxy)-amide] cannot be ordered by pIC50: 5.60 to 6.30 for the first, at least 6.30 for the second.

First: Cn1c(Nc2ccc(I)c(F)c2F)c(C(=O)NOC[C@H](O)CO)c(=O)n(C)c1=O [Example 36, (R)-6-(2,3-Difluoro-4-iodophenylamino)-N-(2,3-dihydroxypropoxy)-1,3-dimethyl-2,4-dioxo-1,2,3,4-tetrahydropyrimidine-5-carboxamide]
Second: Cn1c(Nc2cc(F)c(I)cc2F)c(C(=O)NOC[C@H](O)CO)c(=O)n(C)c1=O [Example 40, (R)-6-(2,5-Difluoro-4-iodophenylamino)-N-(2,3-dihydroxypropoxy)-1,3-dimethyl-2,4-dioxo-1,2,3,4-tetrahydropyrimidine-5-carboxamide]
The pIC50 of the first is higher: 5.60 to 6.30 for the first, under 4.60 for the second. The first is the more potent here.

Compared with `CCn1c(=O)c(C(=O)NOCCO)c(Nc2ccc(I)cc2F)n(C)c1=O` [Example 48, 3-Ethyl-6-(2-fluoro-4-iodophenylamino)-N-(2-hydroxyethoxy)-1-methyl-2,4-dioxo-1,2,3,4-tetrahydropyrimidine-5-carboxamide], `Cn1c(Nc2ccc(I)cc2F)c(C(=O)NOCCO)c(=O)n(C)c1=O` [Example 3, 6-(2-fluoro-4-iodophenylamino)-N-(2-hydroxyethoxy)-1,3-dimethyl-2,4-dioxo-1,2,3,4-tetrahydropyrimidine-5-carboxamide] is higher in pIC50: under 4.60 for the first, at least 6.30 for the second.

`Cn1c(Nc2ccc(I)cc2F)c(C(=O)NO)c(=O)n(C)c1=O` [Example 6, 6-(2-Fluoro-4-iodophenylamino)-N-hydroxy-1,3-dimethyl-2,4-dioxo-1,2,3,4-tetrahydropyrimidine-5-carboxamide] and `Cn1c(Nc2ccc(I)cc2F)c(C(=O)NN)c(=O)n(C)c1=O` [Example 9, 6-(2-Fluoro-4-iodophenylamino)-1,3-dimethyl-2,4-dioxo-1,2,3,4-tetrahydropyrimidine-5-carbohydrazide] cannot be ordered by pIC50: at least 6.30 for the first, at least 6.30 for the second.

`Cn1c(Nc2ccc(I)cc2F)c(C(=O)N2CC(O)C2)c(=O)n(C)c1=O` [Example 58, 6-(2-Fluoro-4-iodo-phenylamino)-5-(3-hydroxy-azetidine-1-carbonyl)-1,3-dimethyl-1H-pyrimidine-2,4-dione] and `Cn1c(Nc2ccc(I)cc2F)c(C(=O)N2CC(O)CO2)c(=O)n(C)c1=O` (stereo not drawn) [Example 32, 6-(2-Fluoro-4-iodophenylamino)-5-(4-hydroxyisoxazolidine-2-carbonyl)-1,3-dimethylpyrimidine-2,4(1H,3H)-dione] fall in the same range of pIC50: 4.60 to 5.60 for the first, 4.60 to 5.60 for the second.

`Cn1c(Nc2ccc(Br)cc2Cl)c(C(N)=O)c(=O)n(C)c1=O` [Example 18, 6-(4-Bromo-2-chlorophenylamino)-1,3-dimethyl-2,4-dioxo-1,2,3,4-tetrahydropyrimidine-5-carboxamide] and `Cn1c(Nc2ccc(Br)cc2F)c(C(N)=O)c(=O)n(C)c1=O` [Example 19, 6-(4-Bromo-2-fluorophenylamino)-1,3-dimethyl-2,4-dioxo-1,2,3,4-tetrahydropyrimidine-5-carboxamide] fall in the same range of pIC50: 4.60 to 5.60 for the first, 4.60 to 5.60 for the second.

Compared with `Cn1c(Nc2ccc(I)cc2F)c(C(=O)c2ccco2)c(=O)n(C)c1=O` [Example 11, 6-(2-Fluoro-4-iodophenylamino)-5-(furan-2-carbonyl)-1,3-dimethylpyrimidine-2,4(1H,3H)-dione], `Cn1c(Nc2ccc(I)cc2F)c(C(N)=O)c(=O)n(C)c1=O` [Example 16, 6-(2-Fluoro-4-iodophenylamino)-1,3-dimethyl-2,4-dioxo-1,2,3,4-tetrahydropyrimidine-5-carboxamide] is higher in pIC50: 4.60 to 5.60 for the first, at least 6.30 for the second. The second is the more potent here.

`Cn1c(Nc2ccc(I)cc2F)c(C(=O)NOC(CO)CO)c(=O)n(C)c1=O` [Example 28, N-(1,3-dihydroxypropan-2-yloxy)-6-(2-fluoro-4-iodophenylamino)-1,3-dimethyl-2,4-dioxo-1,2,3,4-tetrahydropyrimidine-5-carboxamide] and `Cc1cc(I)ccc1Nc1c(C(=O)NOC[C@H](O)CO)c(=O)n(C)c(=O)n1C` [Example 38, (R)-N-(2,3-Dihydroxypropoxy)-6-(4-iodo-2-methylphenylamino)-1,3-dimethyl-2,4-dioxo-1,2,3,4-tetrahydropyrimidine-5-carboxamide] cannot be ordered by pIC50: at least 6.30 for the first, at least 6.30 for the second.

Compared with `Cn1c(Nc2ccc(I)cc2F)c(C(=O)NCCN2CCCC2)c(=O)n(C)c1=O` [Example 33, 6-(2-Fluoro-4-iodophenylamino)-1,3-dimethyl-2,4-dioxo-N-(2-(pyrrolidin-1-yl)ethyl)-1,2,3,4-tetrahydropyrimidine-5-carboxamide], `Cn1c(Nc2ccc(I)cc2F)c(C(=O)N2CCN(CCO)CC2)c(=O)n(C)c1=O` [Example 44, 6-(2-Fluoro-4-iodophenylamino)-5-(4-(2-hydroxyethyl)piperazine-1-carbonyl)-1,3-dimethylpyrimidine-2,4(1H,3H)-dione] is lower in pIC50: 4.60 to 5.60 for the first, under 4.60 for the second. The first is the more potent here.

Compared with `COCCOCC(=O)c1c(Nc2ccc(I)cc2F)n(C)c(=O)n(C)c1=O` [Example 13, 6-(2-Fluoro-4-iodophenylamino)-5-(2-(2-methoxyethoxy)acetyl)-1,3-dimethylpyrimidine-2,4(1H,3H)-dione], `CC(=O)c1c(Nc2ccc(I)cc2F)n(C)c(=O)n(C)c1=O` [Example 10, 5-Acetyl-6-(2-fluoro-4-iodophenylamino)-1,3-dimethylpyrimidine-2,4(1H,3H)-dione] is higher in pIC50: 4.60 to 5.60 for the first, 5.60 to 6.30 for the second.

Compared with `Cn1c(Nc2ccc(I)cc2F)c(C(=O)C(=O)O)c(=O)n(C)c1=O` [Example 31, 2-(6-(2-Fluoro-4-iodophenylamino)-1,3-dimethyl-2,4-dioxo-1,2,3,4-tetrahydropyrimidin-5-yl)-2-oxoacetic acid], `Cn1c(Nc2ccc(I)cc2Cl)c(C(=O)NOC[C@@H](O)CO)c(=O)n(C)c1=O` [Example 39, (S)-6-(2-chloro-4-iodophenylamino)-N-(2,3-dihydroxypropoxy)-1,3-dimethyl-2,4-dioxo-1,2,3,4-tetrahydropyrimidine-5-carboxamide] is higher in pIC50: under 4.60 for the first, at least 6.30 for the second. The second is the more potent here.

Molecule `CCc1cc(Nc2c(C(=O)NOCCO)c(=O)n(C)c(=O)n2C)ccc1I` [Example 41, 6-(3-Ethyl-4-iodophenylamino)-N-(2-hydroxyethoxy)-1,3-dimethyl-2,4-dioxo-1,2,3,4-tetrahydropyrimidine-5-carboxamide] has a pIC50 of under 4.60.
